{"source": "patent US11197933B2", "about": "“Polysubunit opioid prodrugs resistant to overdose and abuse” (Elysium Therapeutics, Inc., priority 2017, dated 2021)", "key": {"trypsin [1]": {"molecular_target": "T1, trypsin (Bos taurus, UniProt P00760)", "T1 construct": "gene PRSS1", "T1 sequence (P00760 24-246)": "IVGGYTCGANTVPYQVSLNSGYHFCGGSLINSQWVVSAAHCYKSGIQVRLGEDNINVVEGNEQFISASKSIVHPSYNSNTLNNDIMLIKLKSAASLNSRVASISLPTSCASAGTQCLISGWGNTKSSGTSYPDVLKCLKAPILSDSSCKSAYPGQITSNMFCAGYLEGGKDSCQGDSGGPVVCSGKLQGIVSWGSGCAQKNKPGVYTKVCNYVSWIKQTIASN", "assay": "Inhibition of trypsin-catalyzed hydrolysis of BANA (percent BANA remaining vs. time)", "type": "biochemical", "conditions": "for Ability to inhibit trypsin (result in words): increasing concentrations, BANA substrate", "procedure": "This example describes in vitro experiments with a compound of the disclosure to provide a mechanism of overdose protection.\nThe effect of increasing concentrations of compounds II-D-11, II-D-23, II-D-71c and II-D-71b on the rate and extent of the trypsin-catalyzed hydrolysis of a commercially available trypsin substrate Nα-Benzoyl-L-arginine 4-nitroanilide hydrochloride (BANA) was evaluated in the presence of trypsin (2,000 BAEE activity) in a pH 7.4 phosphate buffer at 37° C. in vitro. Both buffer solution alone (i.e. no trypsin) and trypsin containing buffer solution (i.e. no test compounds) controls were run contemporaneously."}, "trypsin [2]": {"molecular_target": "T1, trypsin", "assay": "Trypsin inhibitory potency (key differentiating attributes, Table 5)", "type": "biochemical", "text": "(§1) As mentioned previously, a wide range of targeted oral pharmacokinetic profiles can be achieved by administering pharmaceutical compositions containing specific combinations of different polysubunit molecules to subjects. For example, the different polysubunit molecules contained in the composition may differ with regard to (i) the specific opioid agonists delivered, (ii) the rates at which the opioid agonist is delivered in vivo (i.e. to modify the oral pharmacokinetic profile of the delivered opioid), and (iii) the combined inhibitory potency of the GI enzyme inhibiting subunits [i.e. to modify the overdose protection profile and/or the prescribed dose strengths of the delivered opioid agonist(s)]. Table 5 below provides non-limiting examples of compounds of the invention with their key differentiating attributes. Table 6 discusses scenarios and rationales for using the compounds presented in Table 5 in combination with each other, in useful pharmaceutical formulations of the invention."}, "[3]": {"assay": "Rate of release of opioid agonist (key differentiating attributes, Table 5)", "conditions": "for Rate of Release of Opioid Against: in words (Fast/Slow); for half-life: read-out: Rate of Release of Opioid Against: T1/2", "text": "as §1"}, "[4]": {"conditions": "after oral doses; cited from earlier work"}, "[5]": {"conditions": "in man; cited from earlier work"}}}
{"smiles": "COc1ccc2c3c1O[C@H]1C(OC(=O)N4CCC(C(=O)NCCCC[C@H](NC(=O)OCc5ccccc5)C(=O)NCCOc5ccc(C(=O)Oc6cccc(NC(=N)N)c6)cc5)CC4CNC(=O)[C@@H](CCCNC(=N)N)NC(=O)CNC(C)=O)=CC[C@H]4[C@@H](C2)N(C)CC[C@]314", "note": "(stereo partly drawn) [II-D-71b]", "values": [{"measurement": "Percent BANA remaining", "setting": "trypsin [1]; compound 10 uM, 2 minutes, trypsin 2,000 BAEE activity, pH 7.4 phosphate buffer, 37° C.", "value": 87.9, "unit": "%"}, {"measurement": "Percent BANA remaining", "setting": "trypsin [1]; compound 10 uM, 13 minutes, trypsin 2,000 BAEE activity, pH 7.4 phosphate buffer, 37° C.", "value": 0, "unit": "%"}, {"measurement": "Percent BANA remaining", "setting": "trypsin [1]; compound 10 uM, 24 minutes, trypsin 2,000 BAEE activity, pH 7.4 phosphate buffer, 37° C.", "value": 0, "unit": "%"}, {"measurement": "Percent BANA remaining", "setting": "trypsin [1]; compound 10 uM, 35 minutes, trypsin 2,000 BAEE activity, pH 7.4 phosphate buffer, 37° C.", "value": 0, "unit": "%"}, {"measurement": "Percent BANA remaining", "setting": "trypsin [1]; compound 10 uM, 46 minutes, trypsin 2,000 BAEE activity, pH 7.4 phosphate buffer, 37° C.", "value": 0, "unit": "%"}, {"measurement": "Percent BANA remaining", "setting": "trypsin [1]; compound 10 uM, 57 minutes, trypsin 2,000 BAEE activity, pH 7.4 phosphate buffer, 37° C.", "value": 0, "unit": "%"}, {"measurement": "Percent BANA remaining", "setting": "trypsin [1]; compound 10 uM, 68 minutes, trypsin 2,000 BAEE activity, pH 7.4 phosphate buffer, 37° C.", "value": 0, "unit": "%"}, {"measurement": "Percent BANA remaining", "setting": "trypsin [1]; compound 100 uM, 2 minutes, trypsin 2,000 BAEE activity, pH 7.4 phosphate buffer, 37° C.", "value": 93.1, "unit": "%"}, {"measurement": "Percent BANA remaining", "setting": "trypsin [1]; compound 100 uM, 13 minutes, trypsin 2,000 BAEE activity, pH 7.4 phosphate buffer, 37° C.", "value": 15.1, "unit": "%"}, {"measurement": "Percent BANA remaining", "setting": "trypsin [1]; compound 100 uM, 24 minutes, trypsin 2,000 BAEE activity, pH 7.4 phosphate buffer, 37° C.", "value": 2.4, "unit": "%"}, {"measurement": "Percent BANA remaining", "setting": "trypsin [1]; compound 100 uM, 35 minutes, trypsin 2,000 BAEE activity, pH 7.4 phosphate buffer, 37° C.", "value": 2.3, "unit": "%"}, {"measurement": "Percent BANA remaining", "setting": "trypsin [1]; compound 100 uM, 46 minutes, trypsin 2,000 BAEE activity, pH 7.4 phosphate buffer, 37° C.", "value": 1.4, "unit": "%"}, {"measurement": "Percent BANA remaining", "setting": "trypsin [1]; compound 100 uM, 57 minutes, trypsin 2,000 BAEE activity, pH 7.4 phosphate buffer, 37° C.", "value": 0, "unit": "%"}, {"measurement": "Percent BANA remaining", "setting": "trypsin [1]; compound 100 uM, 68 minutes, trypsin 2,000 BAEE activity, pH 7.4 phosphate buffer, 37° C.", "value": 0, "unit": "%"}, {"measurement": "Percent BANA remaining", "setting": "trypsin [1]; compound 1 mM, 2 minutes, trypsin 2,000 BAEE activity, pH 7.4 phosphate buffer, 37° C.", "value": 100, "unit": "%"}, {"measurement": "Percent BANA remaining", "setting": "trypsin [1]; compound 1 mM, 13 minutes, trypsin 2,000 BAEE activity, pH 7.4 phosphate buffer, 37° C.", "value": 76.1, "unit": "%"}, {"measurement": "Percent BANA remaining", "setting": "trypsin [1]; compound 1 mM, 24 minutes, trypsin 2,000 BAEE activity, pH 7.4 phosphate buffer, 37° C.", "value": 66.6, "unit": "%"}, {"measurement": "Percent BANA remaining", "setting": "trypsin [1]; compound 1 mM, 35 minutes, trypsin 2,000 BAEE activity, pH 7.4 phosphate buffer, 37° C.", "value": 59.6, "unit": "%"}, {"measurement": "Percent BANA remaining", "setting": "trypsin [1]; compound 1 mM, 46 minutes, trypsin 2,000 BAEE activity, pH 7.4 phosphate buffer, 37° C.", "value": 56.3, "unit": "%"}, {"measurement": "Percent BANA remaining", "setting": "trypsin [1]; compound 1 mM, 57 minutes, trypsin 2,000 BAEE activity, pH 7.4 phosphate buffer, 37° C.", "value": 55.7, "unit": "%"}, {"measurement": "Percent BANA remaining", "setting": "trypsin [1]; compound 1 mM, 68 minutes, trypsin 2,000 BAEE activity, pH 7.4 phosphate buffer, 37° C.", "value": 53.7, "unit": "%"}, {"measurement": "Ability to inhibit trypsin (result in words)", "setting": "trypsin [1]; pH 7.4, 37° C.", "value": "progressively inhibit trypsin in a concentration dependent manner"}, {"measurement": "Trypsin Inhibitory Potency", "setting": "trypsin [2]", "value": "Low"}, {"measurement": "Rate of Release of Opioid Against", "setting": "[3]", "value": "Fast"}, {"measurement": "half-life", "setting": "[3]", "value": "~10", "unit": "min"}]}
{"smiles": "COc1ccc2c3c1O[C@H]1C(OC(=O)N4CCC(C(=O)NCCCC[C@H](NC(=O)OCc5ccccc5)C(=O)NCCOc5ccc(C(=O)Oc6ccc(NC(=N)N)cc6)cc5)CC4CNC(=O)[C@@H](CCCNC(=N)N)NC(=O)CNC(C)=O)=CC[C@H]4[C@@H](C2)N(C)CC[C@]314", "note": "(stereo partly drawn) [II-D-71c]", "values": [{"measurement": "Percent BANA remaining", "setting": "trypsin [1]; 1 uM compound, 2 minutes, pH 7.4, 37° C.", "value": 81.5, "unit": "%"}, {"measurement": "Percent BANA remaining", "setting": "trypsin [1]; 1 uM compound, 13 minutes, pH 7.4, 37° C.", "value": 0, "unit": "%"}, {"measurement": "Percent BANA remaining", "setting": "trypsin [1]; 1 uM compound, 24 minutes, pH 7.4, 37° C.", "value": 0, "unit": "%"}, {"measurement": "Percent BANA remaining", "setting": "trypsin [1]; 1 uM compound, 35 minutes, pH 7.4, 37° C.", "value": 0, "unit": "%"}, {"measurement": "Percent BANA remaining", "setting": "trypsin [1]; 1 uM compound, 46 minutes, pH 7.4, 37° C.", "value": 0, "unit": "%"}, {"measurement": "Percent BANA remaining", "setting": "trypsin [1]; 1 uM compound, 57 minutes, pH 7.4, 37° C.", "value": 0, "unit": "%"}, {"measurement": "Percent BANA remaining", "setting": "trypsin [1]; 1 uM compound, 68 minutes, pH 7.4, 37° C.", "value": 0, "unit": "%"}, {"measurement": "Percent BANA remaining", "setting": "trypsin [1]; 10 uM compound, 2 minutes, pH 7.4, 37° C.", "value": 76.5, "unit": "%"}, {"measurement": "Percent BANA remaining", "setting": "trypsin [1]; 10 uM compound, 13 minutes, pH 7.4, 37° C.", "value": 58.5, "unit": "%"}, {"measurement": "Percent BANA remaining", "setting": "trypsin [1]; 10 uM compound, 24 minutes, pH 7.4, 37° C.", "value": 42.5, "unit": "%"}, {"measurement": "Percent BANA remaining", "setting": "trypsin [1]; 10 uM compound, 35 minutes, pH 7.4, 37° C.", "value": 26.0, "unit": "%"}, {"measurement": "Percent BANA remaining", "setting": "trypsin [1]; 10 uM compound, 46 minutes, pH 7.4, 37° C.", "value": 13.0, "unit": "%"}, {"measurement": "Percent BANA remaining", "setting": "trypsin [1]; 10 uM compound, 57 minutes, pH 7.4, 37° C.", "value": 4.7, "unit": "%"}, {"measurement": "Percent BANA remaining", "setting": "trypsin [1]; 10 uM compound, 68 minutes, pH 7.4, 37° C.", "value": 0, "unit": "%"}, {"measurement": "Percent BANA remaining", "setting": "trypsin [1]; 100 uM compound, 2 minutes, pH 7.4, 37° C.", "value": 100, "unit": "%"}, {"measurement": "Percent BANA remaining", "setting": "trypsin [1]; 100 uM compound, 13 minutes, pH 7.4, 37° C.", "value": 100, "unit": "%"}, {"measurement": "Percent BANA remaining", "setting": "trypsin [1]; 100 uM compound, 24 minutes, pH 7.4, 37° C.", "value": 99, "unit": "%"}, {"measurement": "Percent BANA remaining", "setting": "trypsin [1]; 100 uM compound, 35 minutes, pH 7.4, 37° C.", "value": 100, "unit": "%"}, {"measurement": "Percent BANA remaining", "setting": "trypsin [1]; 100 uM compound, 46 minutes, pH 7.4, 37° C.", "value": 100, "unit": "%"}, {"measurement": "Percent BANA remaining", "setting": "trypsin [1]; 100 uM compound, 57 minutes, pH 7.4, 37° C.", "value": 100, "unit": "%"}, {"measurement": "Percent BANA remaining", "setting": "trypsin [1]; 100 uM compound, 68 minutes, pH 7.4, 37° C.", "value": 100, "unit": "%"}, {"measurement": "Percent BANA remaining", "setting": "trypsin [1]; 1 mM compound, 2 minutes, pH 7.4, 37° C.", "value": 100, "unit": "%"}, {"measurement": "Percent BANA remaining", "setting": "trypsin [1]; 1 mM compound, 13 minutes, pH 7.4, 37° C.", "value": 100, "unit": "%"}, {"measurement": "Percent BANA remaining", "setting": "trypsin [1]; 1 mM compound, 24 minutes, pH 7.4, 37° C.", "value": 99, "unit": "%"}, {"measurement": "Percent BANA remaining", "setting": "trypsin [1]; 1 mM compound, 35 minutes, pH 7.4, 37° C.", "value": 100, "unit": "%"}, {"measurement": "Percent BANA remaining", "setting": "trypsin [1]; 1 mM compound, 46 minutes, pH 7.4, 37° C.", "value": 100, "unit": "%"}, {"measurement": "Percent BANA remaining", "setting": "trypsin [1]; 1 mM compound, 57 minutes, pH 7.4, 37° C.", "value": 100, "unit": "%"}, {"measurement": "Percent BANA remaining", "setting": "trypsin [1]; 1 mM compound, 68 minutes, pH 7.4, 37° C.", "value": 100, "unit": "%"}, {"measurement": "Ability to inhibit trypsin (result in words)", "setting": "trypsin [1]; pH 7.4, 37° C.", "value": "progressively inhibit trypsin in a concentration dependent manner"}, {"measurement": "Trypsin Inhibitory Potency", "setting": "trypsin [2]", "value": "High"}, {"measurement": "Rate of Release of Opioid Against", "setting": "[3]", "value": "Fast"}, {"measurement": "half-life", "setting": "[3]", "value": "~10", "unit": "min"}]}
{"smiles": "C[C@H]1[C@H]2Cc3ccc(O)cc3[C@]1(C)CCN2CC1CC1", "note": "[cyclazocine]", "values": [{"measurement": "Duration of action", "setting": "[4]", "value": "~24", "unit": "h"}]}
{"smiles": "O=C1CC[C@@]2(O)[C@H]3Cc4ccc(O)c5c4[C@@]2(CCN3CC2CC2)[C@H]1O5", "note": "[naltrexone, Naltrexone]", "values": [{"measurement": "Duration of action", "setting": "[4]", "value": "~24", "unit": "h"}, {"measurement": "Oral bioavailability", "setting": "[5]", "value": "5-40%"}]}
